Measured values: patent US12440507B2, “Sting inhibitors and their therapeutic uses” (CENTRE NATIONAL DE LA RECHERCHE SCIENTIFIQUE, priority 2019, dated 2025)

How the values were obtained:
[1] = biological target: T1, GST-STING139-378 (Mus musculus, UniProt Q3TBT3); assay: Pull-down using biotinylated Ap4A and recombinant proteins (in vitro binding and competition); conditions: for Competition for the binding of STING to biotinylated Ap4A: 10-fold excess of the competitor, 1 h at 4° C.
T1 construct: GST-STING (aa 139-378); made in house; host or cells: Escherichia coli BL21
T1 sequence (Q3TBT3 139-378): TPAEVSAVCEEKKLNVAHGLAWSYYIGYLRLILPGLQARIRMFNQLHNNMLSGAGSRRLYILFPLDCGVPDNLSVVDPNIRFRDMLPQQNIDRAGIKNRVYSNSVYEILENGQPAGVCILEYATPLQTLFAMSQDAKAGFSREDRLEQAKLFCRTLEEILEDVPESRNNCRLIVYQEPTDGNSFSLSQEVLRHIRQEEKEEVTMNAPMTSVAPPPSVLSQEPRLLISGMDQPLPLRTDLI

[2] = system: MEF^Trex1−/−; assay: Ifnβ / type I interferon mRNA levels (RT-qPCR) in treated MEF^Trex1−/−; format: cell-based, mouse; conditions: 500 μM
Experimental: (§1) RNA extraction and RT-qPCR RNA was extracted using Trizol (Invitrogen) and treated with TURBO DNase (Ambion) according to manufacturers' protocols. Reverse transcription (SuperScript IV reverse transcriptase; Invitrogen) and qPCR using specific primers were performed using SYBR GREEN (Takara) master mix and LightCycler 480 cycler (Roche). mRNA levels were normalized to Gapdh mRNA levels except in zebrafish experiments where mRNA levels were normalized to zebrafish actin (zactin).
(§2) Cells were transfected with JetPrime transfection reagent (Polyplus) at 1:2 ratio with various nucleic acids at 2 μg/ml. […] Ap4A or STAN-1 (Sigma Aldrich) were used at 500 μM in Optimem.
Next, to test whether Ap4A inhibits inflammatory responses via a STING-dependent mechanism, the inventors used three-prime repair exonuclease 1 (Trex1)-deficient mouse embryonic fibroblasts (MEF^Trex1−/−—FIG. S1D), as these are a well-characterized model of pathologic chronic inflammation with STING-dependent elevated Ifnβ levels (FIG. S1D)—(15, 16). First, the inventors treated MEF^Trex1−/− with Ap4A for 45, 90 and 180 min. […] To further assess the impact of Ap4A on STING activation and to avoid potential side effects of the addition of exogenous Ap4A to cells, the inventors next performed experiments where they modulate the expression levels of LysRS, the main producer of Ap4A (9, 10). […]

[3] = system: WT-MEF; assay: DMXAA-induced Ifnβ expression in WT-MEF; format: cell-based, mouse; conditions: 200 μM DMXAA, treated with Ap4A for 2 h
Experimental: Data are normalized to non-treated control. Unpaired t-test. **: p<0.005.
as §1, §2

[4] = system: MEF^STING−/−; assay: DMXAA-induced Ifnβ expression in STING knockout MEF; format: cell-based, mouse; conditions: 200 μM DMXAA, treated with Ap4A for 2 h
Experimental: Data are normalized to non-treated control.
as §1, §2

Compound: Nc1ncnc2c1ncn2[C@@H]1O[C@H](COP(=O)(O)OP(=O)(O)OP(=O)(O)OP(=O)(O)OC[C@H]2O[C@@H](n3cnc4c(N)ncnc43)[C@H](O)[C@@H]2O)[C@@H](O)[C@H]1O [Ap4A, Diadenosine tetraphosphate]
- Competition for the binding of STING to biotinylated Ap4A [1]: specific
- Interaction of STING139-378 with Streptavidin-immobilized biotinylated Ap4A ([1]; Western blotting of pull-down): interacts
- type I interferon expression (IFNα and IFNβ mRNA levels) ([2]; 3 hrs, RT-qPCR): decreases type I interferon expression
- Ifnβ mRNA levels ([2]; Ap4A 45, 90 and 180 min, STAN-1 3 h, versus untreated): decreased Ifni mRNA levels
- Ability of DMXAA to induce Ifnβ expression on co-treatment [3]: by half
- Ability of DMXAA to induce Ifnβ expression on co-treatment [4]: no decrease was observed

Compound: cyclic GMP-AMP [cGAMP]
- Competition for the binding of STING to biotinylated Ap4A [1]: displaced
